Assay results as given in patent publication US5770617A, “Terbenzimidazoles useful as antifungal agents” (Rutgers, The State University of New Jersey, priority 1997, dated 1998).

Assays:
[1] = target: T1, Aspergillus topoisomerase I (Aspergillus nidulans, UniProt Q5BGS7); assay: Topoisomerase I cleavage assay, Aspergillus enzyme; format: biochemical; details: DNA cleavage assay
T1 construct: about 105 kDa by phosphate transfer
T1 sequence (Q5BGS7 1-871): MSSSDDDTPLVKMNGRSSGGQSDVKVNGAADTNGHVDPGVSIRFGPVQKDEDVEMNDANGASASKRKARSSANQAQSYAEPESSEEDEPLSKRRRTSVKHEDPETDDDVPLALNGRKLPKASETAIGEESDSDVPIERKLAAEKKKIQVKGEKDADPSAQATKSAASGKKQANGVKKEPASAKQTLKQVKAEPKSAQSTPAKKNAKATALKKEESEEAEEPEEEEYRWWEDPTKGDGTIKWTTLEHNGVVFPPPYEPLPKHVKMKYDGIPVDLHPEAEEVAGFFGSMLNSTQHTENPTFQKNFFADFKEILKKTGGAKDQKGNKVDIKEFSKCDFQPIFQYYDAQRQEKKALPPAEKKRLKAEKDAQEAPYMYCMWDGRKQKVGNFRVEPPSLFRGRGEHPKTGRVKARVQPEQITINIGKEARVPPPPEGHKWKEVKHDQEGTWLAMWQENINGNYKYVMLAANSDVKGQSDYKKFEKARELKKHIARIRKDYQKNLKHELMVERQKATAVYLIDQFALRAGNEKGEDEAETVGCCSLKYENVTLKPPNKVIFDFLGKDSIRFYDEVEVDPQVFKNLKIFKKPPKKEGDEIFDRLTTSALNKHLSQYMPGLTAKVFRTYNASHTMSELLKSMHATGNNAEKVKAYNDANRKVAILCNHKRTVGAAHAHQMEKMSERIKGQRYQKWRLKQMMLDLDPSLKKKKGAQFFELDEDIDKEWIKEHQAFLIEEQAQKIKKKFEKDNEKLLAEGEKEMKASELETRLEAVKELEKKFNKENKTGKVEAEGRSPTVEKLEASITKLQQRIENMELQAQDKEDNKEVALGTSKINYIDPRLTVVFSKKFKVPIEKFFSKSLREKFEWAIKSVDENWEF
Description: Two liters of YG medium (0.5% yeast extract and 2% glucose) were inoculated with approximately 5×10^8 conidia/ml. After 16 hours of growth at 37° C., the mycelia were collected, washed with Buffer I (50 mM Tris-HCl, pH 7.7, 1 mM EDTA, 1 mM EGTA, 10% glycerol, 1 mM phenylmethylsulfonyl fluoride and 1 mM 2-mercaptoethanol), and quickly chilled in liquid nitrogen. The frozen mycelia (approximately 20 grams) were ground to powder and resuspended in 300 ml of Buffer I. The lysate was centrifuged at 10K rpm in a Sorval HB3 Rotor for 15 minutes to remove cell debris. The supernatant was made 6% in polyethylene glycol (v/v) and 1M NaCl. After one hour on ice with gentle stirring, the solution was centrifuged at 14K rpm in a Sorvall Rotor for 30 minutes to remove nucleic acids.
Subsequent steps in purification were the same as described previously for purification of recombinant human DNA topoisomerase I (B. Gatto et al., Cancer Res., 56, 2795 (1996)). Briefly, the supernatant was chromatographed directly onto a hydroxyapatite Bio-gel HTP (BioRad Laboratories, Richmond, Calif.) column. Fractions containing relaxation activity were pooled, diluted and then loaded onto a BioRex70 column (BioRad Laboratories, Richmond, Calif.). The column was developed with a linear gradient from 0.2 to 1M KCl. The peak fractions were pooled and dialyzed overnight at 4° C. against 30 mM potassium phosphate, 50% glycerol (v/v), 0.5 mM EDTA, and 1 mM DTT. Recombinant human topoisomerase I was purified from Escherichia coli BL21 (DE3) harboring PET1B as described previously (Gatto et al., Cancer Res., 56, 2795 (1996)).
DNA topoisomerase I cleavage assays were performed as described by Y.-H. Hsiang et al., J. Biol. Chem., 260, 14873 (1985). YEpG DNA was linearized with BamHI and then 3 '-end-labeled with Klenow polymerase and α[-^32 P]dCTP. Following phenol extraction and ethanol precipitation, the labeled DNA was resuspended in 10 mM Tris, pH 8.0, and 1 mM EDTA. The DNA cleavage assay was done in a reaction mixture (20 μl) containing 40 mM Tris-HCl, pH 7.8, 100 mM KCl, 10 mM MgCl2, 0.5 mM dithiothreitol, 0.5 mM EDTA, 30 μg/ml bovine serum albumin, 20 ng of labeled YEpG DNA, and […] of Aspergillus or human topoisomerase I diluted to various extents. Following incubation at 23° C. for 15 minutes, the reactions were terminated by the addition of SDS (final concentration 1%) and proteinase K (final concentration 200 μg/ml). Proteinase K treatment continued at 37° C. for another 1 hour. The terminated reactions were either alkali-denatured and then loaded (alkaline loading) or loaded directedly in neutral loading buffer (neutral loading) onto a 1% agarose gel in neutral TPE electrophoresis solution. Gel drying and autoradiography were performed as described by Hsiang et al., cited above.

[2] = target: T2, mammalian DNA topoisomerase I (Homo sapiens, UniProt P11387); details: cited from earlier work
T2 sequence (P11387 1-765): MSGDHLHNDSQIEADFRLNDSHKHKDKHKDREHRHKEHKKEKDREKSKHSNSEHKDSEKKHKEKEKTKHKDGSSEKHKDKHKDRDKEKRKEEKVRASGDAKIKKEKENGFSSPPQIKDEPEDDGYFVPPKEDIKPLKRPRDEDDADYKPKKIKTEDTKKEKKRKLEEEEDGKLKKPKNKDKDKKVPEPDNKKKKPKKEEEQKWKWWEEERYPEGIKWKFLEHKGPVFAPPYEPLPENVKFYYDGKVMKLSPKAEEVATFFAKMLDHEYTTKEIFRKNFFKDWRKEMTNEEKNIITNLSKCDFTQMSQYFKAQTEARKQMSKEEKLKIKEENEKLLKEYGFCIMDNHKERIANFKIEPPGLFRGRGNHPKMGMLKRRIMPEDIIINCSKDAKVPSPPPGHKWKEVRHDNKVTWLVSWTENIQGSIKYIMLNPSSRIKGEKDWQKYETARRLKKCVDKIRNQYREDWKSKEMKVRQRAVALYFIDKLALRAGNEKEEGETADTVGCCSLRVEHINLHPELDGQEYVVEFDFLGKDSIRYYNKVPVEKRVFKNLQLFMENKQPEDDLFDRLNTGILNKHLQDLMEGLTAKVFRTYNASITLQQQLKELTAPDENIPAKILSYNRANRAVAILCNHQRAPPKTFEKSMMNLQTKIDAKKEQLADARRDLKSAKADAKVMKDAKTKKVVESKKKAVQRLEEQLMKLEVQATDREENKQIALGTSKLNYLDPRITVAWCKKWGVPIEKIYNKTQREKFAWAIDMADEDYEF

[3] = system: yeast cells expressing human topoisomerase I; assay: Yeast cytotoxicity assay, human topoisomerase I; format: cell-based, S. cerevisiae
Text: (§1) The topoisomerase I-specific in vivo cytotoxicity assay was adapted from A. M. Knab et al., J. Biol. Chem., 268, 22322 (1993). In this system, various topoisomerase I genes or cDNAs cloned into the single-copy yeast plasmid vector (YCpGAL1; Knab et al., cited above) are expressed under the control of the GAL1 promoter in the JN2-134 strain of S. cerevisiae (MAT, rad52::Leu2, trp1, ade2-1, his7, ura3-52, ise1, top1-1, and leu2; M. A. Bjornsti et al., Cancer Res., 49, 6318 (1989)). The topoisomerase I gene or cDNA constructs in the vector are, respectively, the wild-type yeast topoisomerase I gene (YCpGAL-ScTOP1; need cite (1989)), a nonfunctional topoisomerase I gene where the active site tyrosine-727 is mutated to phenylalanine (YCPGAL1-Sctop1Y727; A. M. Knab et al., J. Biol. Chem., 268, 22322 (1993)), and the wild-type human topoisomerase I cDNA (YCp-GAL-hTOP1; M. A. Bjornsti et al., Cancer Res., 49, 6318 (1989)).
(§2) To qualitatively test the cytotoxicity and the topoisomerase I specificity of the drugs, yeast cells containing the specified plasmid were grown in dropout medium supplemented with uracil, 2% galactose, and the drug being tested.

[4] = system: yeast cells expressing yeast topoisomerase I; assay: Yeast cytotoxicity assay, yeast topoisomerase I; format: cell-based, S. cerevisiae
Text: as §1, §2

[5] = system: yeast cells expressing nonfunctional yeast topoisomerase I; assay: Yeast cytotoxicity assay, nonfunctional yeast topoisomerase I; format: cell-based, S. cerevisiae
Text: as §1, §2

Compound: COc1ccc(-c2nc3ccc([N+](=O)[O-])cc3[nH]2)cc1 [QS/II/9]
- inhibition (poisoning) of Aspergillus topoisomerase I, in words [1]: None of the mono-benzimidazoles, including QS/II/50, QS/II/51, QS/II/59A, an QS/II/9, exhibited any inhibitory effect
- inhibition (poisoning) of mammalian DNA topoisomerase I, previous studies [2]: inhibitors (poisons)
- cytotoxicity to yeast cells expressing human topoisomerase I [3]: highly cytotoxic
- cytotoxicity to yeast cells expressing functional yeast topoisomerase I [4]: not cytotoxic
- cytotoxicity to yeast cells expressing nonfunctional yeast topoisomerase I [5]: not cytotoxic
